We go through eleven compounds from ChEMBL document CHEMBL5126629, “Paradoxical Increase of Permeability and Lipophilicity with the Increasing Topological Polar Surface Area within a Series of PRMT5 Inhibitors” (J Med Chem, 2022).

Data set [1] in a line: Lipophilicity, logD of the compound in octanol and phosphate buffer at pH 7.4 incubated for 4 hrs under shaking condition by liquid chromatography tandem mass spectrometry. Type of data set: physicochemical.
The nature of data set [2]: Metabolic stability in human liver microsomes assessed as intrinsic clearance measured upto 30 mins in presence of NADPH by LC/MS/MS analysis. The data set is classed as ADME, Microsome. Particulars: read-out: CLH. (In general: Liver microsomes are vesicles of endoplasmic reticulum, rich in cytochrome P450 enzymes.)
The target of data set [3] is Protein arginine N-methyltransferase 5 (Homo sapiens, UniProt O14744). The data set can be described thus: Inhibition of PRMT5 methyltransferase activity in human MTAP -/- Calu-6 cells assessed as reduction in SmB SDMA levels measured after 2 days by HTRF based assay. The data set is classed as cell-based.
Sequence of Protein arginine N-methyltransferase 5 (O14744 whole entry): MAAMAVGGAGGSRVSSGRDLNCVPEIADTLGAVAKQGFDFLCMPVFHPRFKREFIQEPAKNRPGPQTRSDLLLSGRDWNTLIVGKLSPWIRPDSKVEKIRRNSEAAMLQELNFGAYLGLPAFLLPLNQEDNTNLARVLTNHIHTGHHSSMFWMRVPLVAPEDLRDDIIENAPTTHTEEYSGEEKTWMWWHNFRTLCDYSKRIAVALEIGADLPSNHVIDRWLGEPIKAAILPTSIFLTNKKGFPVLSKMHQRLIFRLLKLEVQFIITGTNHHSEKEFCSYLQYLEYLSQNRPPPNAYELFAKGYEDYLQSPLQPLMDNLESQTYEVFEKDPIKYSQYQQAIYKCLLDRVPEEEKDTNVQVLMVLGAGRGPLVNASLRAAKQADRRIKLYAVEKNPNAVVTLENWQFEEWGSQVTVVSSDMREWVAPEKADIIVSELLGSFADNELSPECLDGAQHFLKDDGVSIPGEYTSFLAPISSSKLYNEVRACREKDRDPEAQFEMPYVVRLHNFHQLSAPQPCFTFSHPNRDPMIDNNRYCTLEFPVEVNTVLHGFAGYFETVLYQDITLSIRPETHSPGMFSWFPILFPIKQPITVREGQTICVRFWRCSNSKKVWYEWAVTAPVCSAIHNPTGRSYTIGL
Data set [4] can be described thus: Efflux ratio of apparent permeability across […] in MDCK-MDR1 incubated for 120 mins by LC-MS analysis. The data set is classed as ADME, cell-based, Canis lupus familiaris. As to conditions: dog, mdck-mdr1, 2 h.

The logD is lipophilicity at a set pH, counting ionised and neutral species. One may read the IC50 as the concentration that gives 50% inhibition. As for `Cc1cc2ncc(Cn3c(C(=O)N(C)c4ccccc4)cn(C)c3=O)cc2nc1N`, in data set [1], the logD at 4 h is 1.1. In addition, in data set [2], the microsomal CLint was 36 µL/min/mg. In data set [3], the IC50 came to 29 nM.

For the compound `Cc1cc2ccc(Cn3c(C(=O)N(C)c4ccccc4)cn(C)c3=O)cc2nc1N`, in data set [4], the Ratio was 35. The same compound returned a pH-dependent lipophilicity (logD) at 4 h in data set [1] of 1.6. Also, the microsomal CLint in data set [2] stood at 395 µL/min/mg. In addition, the IC50 in data set [3] was found to be 2 nM.

Regarding `Cc1cc2ccc(Cn3c(C(=O)N(C)c4ccccc4)coc3=O)cc2nc1N`, the Ratio in data set [4] is reported as 2. In addition, in data set [1], the logD at 4 h worked out at 1.8. In addition, the microsomal CLint in data set [2] came to 240 µL/min/mg. The 50% inhibitory concentration (IC50) in data set [3] stood at 1 nM.

For the compound `Cc1cc2ccc(Cn3c(C(=O)N(C)c4ccccc4)nn(C)c3=O)cc2nc1N`, the Ratio in data set [4] was 6. In data set [1], this compound had a pH-dependent lipophilicity (logD) at 4 h of 1.9. The microsomal CLint in data set [2] was 97 µL/min/mg. Besides, the IC50 in data set [3] is 2 nM.

Consider `Cc1cc2ccc(Cn3c(C(=O)N(C)c4ccccc4)cccc3=O)cc2nc1N`, for which, in data set [4], the Ratio came to 22. For the same compound, the logD at 4 h in data set [1] was found to be 2. Further, in data set [2], the microsomal CLint was 422 µL/min/mg. For the same compound, in data set [3], the half-inhibitory concentration (IC50) was determined as 17 nM.

On to `Cc1cc2ccc(Cn3c(C(=O)N(C)c4ccccc4)noc3=O)cc2nc1N`, for which the Ratio in data set [4] is reported as 1. In addition, the logD at 4 h in data set [1] was determined as 2.9. In addition, the microsomal CLint in data set [2] was above 700 µL/min/mg. In data set [3], the half-maximal inhibitory concentration (IC50) came out at 49 nM.

On to `Cc1cc2ccc(Cn3c(C(=O)N(C)c4ccccn4)nn(C)c3=O)cc2nc1N`, for which the Ratio in data set [4] is 17. Moreover, the logD at 4 h in data set [1] is 0.9. For the same compound, in data set [2], the microsomal CLint is below 25 µL/min/mg. Besides, in data set [3], the IC50 worked out at 21 nM.

On to `Cc1cc2ccc(Cn3nncc3C(=O)N(C)c3ccccc3)cc2nc1N`, for which, in data set [4], the Ratio came out at 3. In data set [1], the logD at 4 h came out at 2.1. Also, the microsomal CLint in data set [2] was found to be 547 µL/min/mg. Further, in data set [3], the IC50 came out at 50 nM.

As to `Cc1cc2ccc(Cn3nccc3C(=O)N(C)c3ncccc3F)cc2nc1N`, in data set [4], the Ratio came to 1. The compound also had a pH-dependent lipophilicity (logD) at 4 h in data set [1] of 1.8. Further, the microsomal CLint in data set [2] came to 89 µL/min/mg. The half-inhibitory concentration (IC50) in data set [3] is 14 nM.

With `Cc1cc2ccc(Cn3c(C(=O)N(C)c4ccccn4)cn(C)c3=O)cc2nc1N`, the Ratio in data set [4] is 14. Moreover, the log distribution coefficient (logD) at 4 h in data set [1] came to 0.8. In data set [2], the microsomal CLint turned out to be 28 µL/min/mg. Moreover, the concentration for half-maximal inhibition (IC50) in data set [3] is 9 nM.

As for `Cc1cc2ccc(Cn3c(C(=O)N(C)c4ccccc4)nccc3=O)cc2nc1N`, the Ratio in data set [4] stood at 8. This compound showed a logD at 4 h in data set [1] of 2.1. Also, the microsomal CLint in data set [2] came out at 299 µL/min/mg. Also, the half-inhibitory concentration (IC50) in data set [3] amounted to 39 nM.
